Patent US20230303513A1, “OXOPYRROLIDINE UREA FPR2 AGONISTS” (BRISTOL-MYERS SQUIBB COMPANY, priority 2020, published 2023)
Where two headings read alike, the source gives them in different places.

How the values were obtained:
human FPR2 = human FPR2 (Homo sapiens (Human), UniProt P25090); assay: FPR2 cyclic adenosine monophosphate (cAMP) assay; format: cell-based; conditions: read-out: hFPR2 cAMP2 EC50
From the text: (§1) N-formyl peptide receptors (FPRs) are a family of chemo attractant receptors that facilitate leukocyte response during inflammation. FPRs belong to the seven-transmembrane G protein-coupled receptor superfamily and are linked to inhibitory G-proteins (Gi). Three family members (FPR1, FPR2 and FPR3) have been identified in humans and are predominantly found in myeloid cells with varied distribution and have also been reported in multiple organs and tissues. After agonist binding, the FPRs activate a multitude of physiological pathways, such as intra cellular signaling transduction, Ca^21 mobilization and transcription. The family interacts with a diverse set of ligands that includes proteins, polypeptides and fatty acid metabolites which activate both pro-inflammatory and pro-resolution downstream responses. FPR2 and FPR1 Cyclic Adenosine Monophosphate (cAMP) Assays were used to measure the activity of the compounds in this patent.
(§2) FPR2 and FPR1 Cyclic Adenosine Monophosphate (cAMP) Assays. A mixture of forskolin (5 μM final for FPR2 or 10 μM final for FPR1) and IBMX (200 μM final) were added to 384-well Proxiplates (Perkin-Elmer) pre-dotted with test compounds in DMSO (1% final) at final concentrations in the range of 0.020 nM to 100 μM. Chinese Hamster Ovary cells (CHO) overexpressing human FPR1 or human FPR2 receptors were cultured in F-12 (Ham's) medium supplemented with 10% qualified FBS, 250 μg/ml zeocin and 300 μg/ml hygromycin (Life Technologies). Reactions were initiated by adding 2,000 human FPR2 cells per well or 4,000 human FPR1 cells per well in Dulbecco's PBS (with calcium and magnesium) (Life Technologies) supplemented with 0.1% BSA (Perkin-Elmer). The reaction mixtures were incubated for 30 min at room temperature. The level of intracellular cAMP was determined using the HTRF HiRange cAMP assay reagent kit (Cisbio) according to manufacturer's instruction. Solutions of cryptate conjugated anti-cAMP and d2 flurorophore-labelled cAMP were made in a supplied lysis buffer separately. Upon completion of the reaction, the cells were lysed with equal volume of the d2-cAMP solution and anti-cAMP solution. After a 1-h room temperature incubation, time-resolved fluorescence intensity was measured using the Envision (Perkin-Elmer) at 400 nm excitation and dual emission at 590 nm and 665 nm. A calibration curve was constructed with an external cAMP standard at concentrations ranging from 1 μM to 0.1 μM by plotting the fluorescent intensity ratio from 665 nm emission to the intensity from the 590 nm emission against cAMP concentrations. The potency and activity of a compound to inhibit cAMP production was then determined by fitting to a 4-parametric logistic equation from a plot of cAMP level versus compound concentrations.

human FPR1 = human FPR1 (Homo sapiens (Human), UniProt P21462); assay: FPR1 cyclic adenosine monophosphate (cAMP) assay; format: cell-based; conditions: read-out: hFPR1 cAMP EC50
From the text: as §1, §2

[1] = CHO cells overexpressing human FPR2, forskolin 5 μM, IBMX 200 μM, inhibition of cAMP production, HTRF
[2] = CHO cells overexpressing human FPR1, forskolin 10 μM, IBMX 200 μM, inhibition of cAMP production, HTRF

Sequence of human FPR1 (P21462 whole entry): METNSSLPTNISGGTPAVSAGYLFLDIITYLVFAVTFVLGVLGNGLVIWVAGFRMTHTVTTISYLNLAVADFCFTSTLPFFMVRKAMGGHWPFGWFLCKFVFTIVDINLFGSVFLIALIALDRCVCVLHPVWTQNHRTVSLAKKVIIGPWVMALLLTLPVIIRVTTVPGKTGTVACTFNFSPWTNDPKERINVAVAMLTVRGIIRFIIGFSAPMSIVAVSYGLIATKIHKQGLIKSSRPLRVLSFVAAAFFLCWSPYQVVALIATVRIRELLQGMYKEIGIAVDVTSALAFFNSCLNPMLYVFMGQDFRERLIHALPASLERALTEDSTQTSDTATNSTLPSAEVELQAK
Sequence of human FPR2 (P25090 whole entry): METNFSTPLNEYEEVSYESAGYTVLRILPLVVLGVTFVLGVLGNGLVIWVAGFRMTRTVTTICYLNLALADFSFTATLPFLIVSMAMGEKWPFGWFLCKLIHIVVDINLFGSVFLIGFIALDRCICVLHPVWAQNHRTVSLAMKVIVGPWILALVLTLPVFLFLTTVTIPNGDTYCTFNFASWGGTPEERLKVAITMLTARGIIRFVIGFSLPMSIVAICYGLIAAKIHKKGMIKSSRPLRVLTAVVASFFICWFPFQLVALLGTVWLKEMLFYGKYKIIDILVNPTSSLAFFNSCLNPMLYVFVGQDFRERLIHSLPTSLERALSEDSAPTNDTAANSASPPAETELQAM

Row | SMILES | EC50 (human FPR2; [1]) [nM] | EC50 (human FPR1; [2]) [nM] | EC50 (human FPR2) [nM] | EC50 (human FPR1) [nM]
1 | COc1cc(F)c([C@@H]2CN(c3nccc(N4CCN(C)CC4)c3C(F)(F)F)C(=O)[C@H]2NC(=O)N[C@H]2CC[C@H](C(F)F)CC2)c(F)c1 [Example 30] | 3.6 | 2500 | – | –
2 | COc1cc(F)c([C@H]2[C@H](NC(=O)NC3CCc4cc(OC)ccc4C3)C(=O)N(c3ncccc3OC)[C@H]2C)c(F)c1 (some centres unmarked) [Example 15] | 1.5 | 13.2 | – | –
3 | COc1cc(F)c([C@H]2[C@H](NC(=O)NC3CCc4cc(OC)ccc4C3)C(=O)N(c3cccn(CCO)c3=O)[C@H]2C)c(F)c1 (single isomer, unassigned) [Example 89] | 7.1 | 4.3 | – | –
4 | COc1cc(F)c([C@@H]2CN(c3nccc(N4CCC(C)(O)C4)c3C(F)(F)F)C(=O)[C@H]2NC(=O)N[C@H]2CC[C@H](C(F)F)CC2)c(F)c1 (single isomer, unassigned) [Example 92] | 44 | > 5000 | – | –
5 | COCCn1cccc(N2C(=O)[C@@H](NC(=O)NC3CCc4cc(Cl)ccc4C3)[C@H](c3c(F)cc(OC)cc3F)[C@@H]2C)c1=O (some centres unmarked) [Example 27] | 2.9 | 2.5 | – | –
6 | COc1cc(F)c([C@@H]2CN(c3nccc(N4CCN5CCCC5C4)c3C(F)(F)F)C(=O)[C@H]2NC(=O)N[C@H]2CC[C@H](C(F)F)CC2)c(F)c1 (single isomer, unassigned) [Example 102] | 7.9 | 1000 | – | –
7 | COc1cc(F)c([C@@H]2CN(c3ncccc3C(F)(F)F)C(=O)[C@H]2NC(=O)N[C@H]2CC[C@H](C(F)F)CC2)c(F)c1 [Example 32] | – | – | 3.9 | 1200
8 | COc1cc(F)c([C@H]2[C@H](NC(=O)NC3CCc4cc(OC)ccc4C3)C(=O)N(c3cccn(CCO)c3=O)[C@H]2C)c(F)c1 (single isomer, unassigned) [Example 90] | 4 | 3.7 | – | –
9 | COCCn1ccc(OC)c(N2C[C@@H](c3c(F)cc(OC)cc3F)[C@H](NC(=O)NC3CCc4cc(OC)ccc4C3)C2=O)c1=O (some centres unmarked) [Example 50] | 12 | 1.2 | – | –
10 | COc1cc(F)c([C@@H]2CN(c3c(OC)ccn(C)c3=O)C(=O)[C@H]2NC(=O)NC2CCc3cc(OC)ccc3C2)c(F)c1 (some centres unmarked) [Example 57] | 26 | 1.2 | – | –
11 | COCCn1cccc(N2C[C@@H](c3ccc(Cl)cc3)[C@H](NC(=O)NC3CCc4cc(OC)ccc4C3)C2=O)c1=O (some centres unmarked) [Example 55] | 24 | 0.5 | – | –
12 | COc1cc(F)c([C@@H]2CN(c3ncccc3C(F)(F)F)C(=O)[C@H]2NC(=O)NC2CCc3cc(OC)ccc3C2)c(F)c1 (some centres unmarked) [Example 46] | 7.1 | 1.5 | – | –
13 | COCCn1cccc(N2C[C@@H](c3ccc(OC)cc3)[C@H](NC(=O)NC3CCc4cc(Cl)ccc4C3)C2=O)c1=O (some centres unmarked) [Example 5] | 0.2 | – | – | –
14 | CCn1cccc(N2C[C@@H](c3ccc(OC)cc3)[C@H](NC(=O)NC3CCc4cc(OC)ccc4C3)C2=O)c1=O (some centres unmarked) [Example 13] | 1.3 | – | – | –
15 | COc1cc(F)c([C@@H]2CN(c3ncccc3C(F)(F)F)C(=O)[C@H]2NC(=O)NC2CCc3cc(OC)ccc3C2)c(F)c1 (some centres unmarked) [Example 64] | 53 | 54 | – | –
16 | COCCn1cccc(N2C(=O)[C@@H](NC(=O)NC3CCc4cc(OC)ccc4C3)[C@H](c3c(F)cc(OC)cc3F)[C@@H]2C)c1=O (some centres unmarked) [Example 26] | 2.8 | – | – | –
17 | COc1cc(F)c([C@@H]2CN(c3nccc(NCC4CCCO4)c3C(F)(F)F)C(=O)[C@H]2NC(=O)N[C@H]2CC[C@H](C(F)F)CC2)c(F)c1 (some centres unmarked) [Example 93] | 14 | 1700 | – | –
18 | COCCn1cccc(N2C(=O)[C@@H](NC(=O)NC3CCc4cc(OC)ccc4C3(C)C)[C@H](c3c(F)cc(OC)cc3F)[C@@H]2C)c1=O (some centres unmarked) [Example 40] | 5.3 | 200 | – | –

Row | SMILES | EC50 (human FPR2; [1]) [nM] | EC50 (human FPR1; [2]) [nM] | EC50 (human FPR2) [nM] | EC50 (human FPR1) [nM]
19 | COCCn1cccc(N2C[C@@H](c3c(F)cc(OC)cc3F)[C@H](NC(=O)NC3CCc4cc(OC)ccc4C3(C)C)C2=O)c1=O (some centres unmarked) [Example 54] | 19 | 8.8 | – | –
20 | CCn1cccc(N2C[C@@H](c3ccc(OC)cc3)[C@H](NC(=O)NC3CCc4cc(OC)ccc4C3)C2=O)c1=O (some centres unmarked) [Example 12] | 0.9 | 0.8 | – | –
21 | COCCn1cccc(N2C(=O)[C@@H](NC(=O)NC3CCc4cc(OC)ccc4C3(C)C)[C@H](c3c(F)cc(OC)cc3F)[C@@H]2C)c1=O (some centres unmarked) [Example 62] | 36 | 23 | – | –
22 | COCCn1cccc(N2C[C@@H](c3c(F)cc(OC)cc3F)[C@H](NC(=O)NC3CCc4cc(OC)ccc4C3)C2=O)c1=O (some centres unmarked) [Example 34] | 4.2 | 0.3 | – | –
23 | CCn1cccc(N2C[C@@H](c3c(F)cc(OC)cc3F)[C@H](NC(=O)NC3CCc4cc(OC)ccc4C3(C)C)C2=O)c1=O (some centres unmarked) [Example 61] | 33 | 17 | – | –
24 | COCCn1cccc(N2C[C@@H](c3c(F)cc(OC)cc3F)[C@H](NC(=O)NC3CCc4cc(OC)ccc4C3(C)C)C2=O)c1=O (some centres unmarked) [Example 45] | 6.7 | 562 | – | –
25 | COc1cc(F)c([C@@H]2CN(c3nccc(N4CCN5CCCC5C4)c3C(F)(F)F)C(=O)[C@H]2NC(=O)N[C@H]2CC[C@H](C(F)F)CC2)c(F)c1 (single isomer, unassigned) [Example 103] | 17 | 2100 | – | –
26 | COc1cc(F)c([C@@H]2CN(c3ncccc3C(F)(F)F)C(=O)[C@H]2NC(=O)NC2CCc3cc(OC)ccc3C2(C)C)c(F)c1 (some centres unmarked) [Example 58] | 29 | 220 | – | –
27 | COc1cc(F)c([C@@H]2CN(c3nccc(N4C[C@@H]5C[C@H]4CN5C)c3C(F)(F)F)C(=O)[C@H]2NC(=O)N[C@H]2CC[C@H](C(F)F)CC2)c(F)c1 (single isomer, unassigned) [Example 97] | 0.4 | 1400 | – | –
28 | COCC(CO)n1cccc(N2C[C@@H](c3c(F)cc(OC)cc3F)[C@H](NC(=O)NC3CCc4cc(OC)ccc4C3)C2=O)c1=O (some centres unmarked) [Example 82] | 9.9 | 0.8 | – | –
29 | COc1cc(F)c([C@@H]2CN(c3cccn(CCO)c3=O)C(=O)[C@H]2NC(=O)NC2CCc3cc(Cl)ccc3C2)c(F)c1 (some centres unmarked) [Example 14] | 1.4 | 0.8 | – | –
30 | COc1cc(F)c([C@@H]2CN(c3cccn(C(F)F)c3=O)C(=O)[C@H]2NC(=O)NC2CCc3cc(OC)ccc3C2)c(F)c1 (single isomer, unassigned) [Example 94] | 1.6 | 1.2 | – | –
31 | COc1cc(F)c([C@@H]2CN(c3ncccc3C(F)(F)F)C(=O)[C@H]2NC(=O)NC2CCc3cc(Cl)ccc3C2)c(F)c1 (some centres unmarked) [Example 31] | 3.8 | 110 | – | –
32 | COc1cc(F)c([C@@H]2CN(c3cccn(CCO)c3=O)C(=O)[C@H]2NC(=O)N[C@H]2CC[C@H](C(F)F)CC2)c(F)c1 [Example 65] | 55 | 5000 | – | –
33 | CNC(=O)C(C)Nc1ccnc(N2C[C@@H](c3c(F)cc(OC)cc3F)[C@H](NC(=O)N[C@H]3CC[C@H](C(F)F)CC3)C2=O)c1C(F)(F)F (single isomer, unassigned) [Example 75] | 21 | > 1000 | – | –
34 | COc1cc(F)c([C@@H]2CN(c3cccn(CC(O)C(F)(F)F)c3=O)C(=O)[C@H]2NC(=O)NC2CCc3cc(OC)ccc3C2)c(F)c1 (single isomer, unassigned) [Example 77] | 15 | – | – | –
35 | COc1cc(F)c([C@@H]2CN(c3cccn(CC(O)C(F)(F)F)c3=O)C(=O)[C@H]2NC(=O)NC2CCc3cc(OC)ccc3C2)c(F)c1 (some centres unmarked) [Example 79] | 7.3 | – | – | –
